From patent US20230242585A1, “IMMUNOMODULATORS” (Bristol-Myers Squibb Company, priority 2020, published 2023)
Each block holds one compound with its values, some of them ahead of it. Starred links: 1 amine or outer side, 2 acyl side, 3 side chain; linkers in the order of their positions; H or OH if unused. Positions of bridges follow the written chain, without caps; N, C: chain ends. Non-standard residues stand in square brackets, D forms with d. Residues, ends and D or L forms follow the SMILES beside them. X30 = O=C([C@H](CCNC[C@H](O)[C@@H](O)[C@H](O[C@H]1O[C@H](CO)[C@@H](O)[C@H](O)[C@H]1O)[C@H](O)CO)N[*:1])[*:2]; X27 = O=C([C@H](CNC[C@H](O)[C@@H](O)[C@H](O[C@@H]1O[C@H](CO)[C@H](O)[C@H](O)[C@H]1O)[C@H](O)CO)N[*:1])[*:2]; X29 = O=C([C@H](CNC[C@H](O)[C@@H](O)[C@H](O[C@H]1O[C@H](CO)[C@@H](O)[C@H](O)[C@H]1O)[C@H](O)CO)N[*:1])[*:2]; X25 = CC(=O)N[C@@H](CNCC[C@H](N[*:1])C(=O)[*:2])[C@@H](O)[C@H](O)[C@H](O)CO; X24 = CC(=O)N[C@@H](CNC[C@H](N[*:1])C(=O)[*:2])[C@@H](O)[C@H](O)[C@H](O)CO; X43 = O=C([C@H](CNC[C@@H](O)[C@H](O)[C@@H](O)[C@@H](O)CO)N[*:1])[*:2]; X58 = O=C([C@H](CNC[C@H](O)[C@@H](O)[C@H](O)[C@H](O)CO)N[*:1])[*:2]; X1 = O=C([C@H](CNC[C@H](O)[C@H](O)[C@H](O)[C@H](O)CO)N[*:1])[*:2]; X68 = O=C([C@H](CCNC[C@@H](O)[C@H](O)[C@H](O)CO)N[*:1])[*:2]; X6 = O=C([C@H](CCNC[C@H](O)[C@@H](O)[C@H](O)CO)N[*:1])[*:2]; X67 = O=C([C@H](CNC[C@@H](O)[C@H](O)[C@H](O)CO)N[*:1])[*:2]; X5 = O=C([C@H](CNC[C@H](O)[C@@H](O)[C@H](O)CO)N[*:1])[*:2]; Trp(1-CH2COOH) = N[C@@H](Cc1cn(CC(=O)O)c2ccccc12)C(=O)O; Hyp = O=C(O)[C@@H]1C[C@@H](O)CN1; NMeNle = CCCC[C@H](NC)C(=O)O; NMeA = CN[C@@H](C)C(=O)O; Dab = NCC[C@H](N)C(=O)O

Molecular target: T1, PD-1/PD-L1 (Homo sapiens, UniProt Q9NZQ7)
T1 construct: TVMV protease site (linker) (C); made in house; host or cells: HEK293T cells
T1 sequence (Q9NZQ7 18-239): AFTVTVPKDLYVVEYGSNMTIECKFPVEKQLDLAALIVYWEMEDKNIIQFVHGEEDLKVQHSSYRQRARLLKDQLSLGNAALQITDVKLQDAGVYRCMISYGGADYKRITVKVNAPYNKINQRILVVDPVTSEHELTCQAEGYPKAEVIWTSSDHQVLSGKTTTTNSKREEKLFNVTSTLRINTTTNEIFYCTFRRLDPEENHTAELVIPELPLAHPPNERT
Experiment: PD-1/PD-L1 Homogenous Time-Resolved Fluorescence (HTRF) binding assay
Details: PD-L1-His 10 nM, PD-1-Ig 20 nM
Description: The ability of the compounds of formula (I) to bind to PD-L1 was investigated using a PD-1/PD-L1 Homogenous Time-Resolved Fluorescence (HTRF) binding assay.
The interaction of PD-1 and PD-L1 can be assessed using soluble, purified preparations of the extracellular domains of the two proteins. The PD-1 and PD-L1 protein extracellular domains were expressed as fusion proteins with detection tags, for PD-1, the tag was the Fc portion of Immunoglobulin (PD-1-Ig) and for PD-L1 it was the 6 histidine motif (PD-L1-His). All binding studies were performed in an HTRF assay buffer consisting of dPBS supplemented with 0.1% […] bovine serum albumin and 0.05% (v/v) Tween-20. For the h/PD-L1-His binding assay, inhibitors were pre-incubated with PD-L1-His (10 nM final) for 15 m in 4 µl of assay buffer, followed by addition of PD-1-Ig (20 nM final) in 1 µl of assay buffer and further incubation for 15 m. HTRF detection was achieved using europium crypate-labeled anti-Ig (1 nM final) and allophycocyanin (APC) labeled anti-His (20 nM final). Antibodies were diluted in HTRF detection buffer and 5 µl was dispensed on top of the binding reaction. The reaction mixture was allowed to equilibrate for 30 minutes and the resulting signal (665 nm/620 nm ratio) was obtained using an EnVision fluorometer. Additional binding assays were established between the human proteins PD-1-Ig/PD-L2-His (20 & 5 nM, respectively) and CD80-His/PD-L1-Ig (100 & 10 nM, respectively).
Recombinant Proteins: Human PD-1 (25-167) with a C-terminal human Fc domain of immunoglobulin G (Ig) epitope tag [hPD-1 (25-167)-3S-IG] and human PD-L1 (18-239) with a C-terminal His epitope tag [hPD-L1(18-239)-TVMV-His] were expressed in HEK293T cells and purified sequentially by ProteinA affinity chromatography and size exclusion chromatography. Human PD-L2-His and CD80-His was obtained through commercial sources.
Table 1 lists the IC50 values for representative examples of this disclosure measured in the PD-1/PD-L1 Homogenous Time-Resolved Fluorescence (HTRF) binding assay.

SMILES: CCCC[C@H]1C(=O)N(C)[C@@H](CCCC)C(=O)N[C@@H](CC(C)C)C(=O)N[C@H](C(=O)NCC(N)=O)CSCC(=O)N[C@@H](Cc2ccc(O)cc2)C(=O)N(C)[C@@H](C)C(=O)N[C@@H](CC(N)=O)C(=O)N2CCC[C@H]2C(=O)N[C@@H](CNC[C@H](O)[C@H](O)[C@H](O)[C@H](O)CO)C(=O)N[C@@H](CC(C)C)C(=O)N2C[C@H](O)C[C@H]2C(=O)N[C@@H](Cc2c[nH]c3ccccc23)C(=O)N[C@@H](CCN)C(=O)N[C@@H](Cc2cn(CC(=O)O)c3ccccc23)C(=O)N1C [Example 2007] ({CH2CO}-Y[NMeA]NP[X1]L[Hyp]W[Dab][Trp(1-CH2COOH)][NMeNle][NMeNle]LCG-NH2; thioether N-14)
IC50: 5.1 nM

SMILES: CCCC[C@H]1C(=O)N(C)[C@@H](CCCC)C(=O)N[C@@H](CC(C)C)C(=O)N[C@H](C(=O)NCC(N)=O)CSCC(=O)N[C@@H](Cc2ccc(O)cc2)C(=O)N(C)[C@@H](C)C(=O)N[C@@H](CC(N)=O)C(=O)N2CCC[C@H]2C(=O)N[C@@H](CNC[C@H](NC(C)=O)[C@@H](O)[C@H](O)[C@H](O)CO)C(=O)N[C@@H](CC(C)C)C(=O)N2C[C@H](O)C[C@H]2C(=O)N[C@@H](Cc2c[nH]c3ccccc23)C(=O)N[C@@H](CCNC[C@H](NC(C)=O)[C@@H](O)[C@H](O)[C@H](O)CO)C(=O)N[C@@H](Cc2cn(CC(=O)O)c3ccccc23)C(=O)N1C [Example 2009] ({CH2CO}-Y[NMeA]NP[X24]L[Hyp]W[X25][Trp(1-CH2COOH)][NMeNle][NMeNle]LCG-NH2; thioether N-14)
IC50: 5.7 nM

SMILES: CCCC[C@H]1C(=O)N(C)[C@@H](CCCC)C(=O)N[C@@H](CC(C)C)C(=O)N[C@H](C(=O)NCC(N)=O)CSCC(=O)N[C@@H](Cc2ccc(O)cc2)C(=O)N(C)[C@@H](C)C(=O)N[C@@H](CC(N)=O)C(=O)N2CCC[C@H]2C(=O)N[C@@H](CNC[C@H](O)[C@@H](O)[C@H](O[C@H]2O[C@H](CO)[C@@H](O)[C@H](O)[C@H]2O)[C@H](O)CO)C(=O)N[C@@H](CC(C)C)C(=O)N2C[C@H](O)C[C@H]2C(=O)N[C@@H](Cc2c[nH]c3ccccc23)C(=O)N[C@@H](CCNC[C@H](O)[C@@H](O)[C@H](O[C@H]2O[C@H](CO)[C@@H](O)[C@H](O)[C@H]2O)[C@H](O)CO)C(=O)N[C@@H](Cc2cn(CC(=O)O)c3ccccc23)C(=O)N1C [Example 2010] ({CH2CO}-Y[NMeA]NP[X29]L[Hyp]W[X30][Trp(1-CH2COOH)][NMeNle][NMeNle]LCG-NH2; thioether N-14)
IC50: 2.1 nM

SMILES: CCCC[C@H]1C(=O)N(C)[C@@H](CCCC)C(=O)N[C@@H](CC(C)C)C(=O)N[C@H](C(=O)NCC(N)=O)CSCC(=O)N[C@@H](Cc2ccc(O)cc2)C(=O)N(C)[C@@H](C)C(=O)N[C@@H](CC(N)=O)C(=O)N2CCC[C@H]2C(=O)N[C@@H](CNC[C@@H](O)[C@H](O)[C@H](O)CO)C(=O)N[C@@H](CC(C)C)C(=O)N2C[C@H](O)C[C@H]2C(=O)N[C@@H](Cc2c[nH]c3ccccc23)C(=O)N[C@@H](CCNC[C@@H](O)[C@H](O)[C@H](O)CO)C(=O)N[C@@H](Cc2cn(CC(=O)O)c3ccccc23)C(=O)N1C [Example 2012] ({CH2CO}-Y[NMeA]NP[X67]L[Hyp]W[X68][Trp(1-CH2COOH)][NMeNle][NMeNle]LCG-NH2; thioether N-14)
IC50: 0.7 nM

SMILES: CCCC[C@H]1C(=O)N(C)[C@@H](CCCC)C(=O)N[C@@H](CC(C)C)C(=O)N[C@H](C(=O)NCC(N)=O)CSCC(=O)N[C@@H](Cc2ccc(O)cc2)C(=O)N(C)[C@@H](C)C(=O)N[C@@H](CC(N)=O)C(=O)N2CCC[C@H]2C(=O)N[C@@H](CNC[C@H](O)[C@@H](O)[C@H](O)CO)C(=O)N[C@@H](CC(C)C)C(=O)N2C[C@H](O)C[C@H]2C(=O)N[C@@H](Cc2c[nH]c3ccccc23)C(=O)N[C@@H](CCNC[C@H](O)[C@@H](O)[C@H](O)CO)C(=O)N[C@@H](Cc2cn(CC(=O)O)c3ccccc23)C(=O)N1C [Example 2014] ({CH2CO}-Y[NMeA]NP[X5]L[Hyp]W[X6][Trp(1-CH2COOH)][NMeNle][NMeNle]LCG-NH2; thioether N-14)
IC50: 2.5 nM

Continued, values first:

IC50: 8.8 nM
SMILES: CCCC[C@H]1C(=O)N(C)[C@@H](CCCC)C(=O)N[C@@H](CC(C)C)C(=O)N[C@H](C(=O)NCC(N)=O)CSCC(=O)N[C@@H](Cc2ccc(O)cc2)C(=O)N(C)[C@@H](C)C(=O)N[C@@H](CC(N)=O)C(=O)N2CCC[C@H]2C(=O)N[C@@H](CNC[C@H](O)[C@@H](O)[C@H](O[C@H]2O[C@H](CO)[C@@H](O)[C@H](O)[C@H]2O)[C@H](O)CO)C(=O)N[C@@H](CC(C)C)C(=O)N2C[C@H](O)C[C@H]2C(=O)N[C@@H](Cc2c[nH]c3ccccc23)C(=O)N[C@@H](CCN)C(=O)N[C@@H](Cc2cn(CC(=O)O)c3ccccc23)C(=O)N1C [Example 2011] ({CH2CO}-Y[NMeA]NP[X29]L[Hyp]W[Dab][Trp(1-CH2COOH)][NMeNle][NMeNle]LCG-NH2; thioether N-14)

IC50: 9.7 nM
SMILES: CCCC[C@H]1C(=O)N(C)[C@@H](CCCC)C(=O)N[C@@H](CC(C)C)C(=O)N[C@H](C(=O)NCC(N)=O)CSCC(=O)N[C@@H](Cc2ccc(O)cc2)C(=O)N(C)[C@@H](C)C(=O)N[C@@H](CC(N)=O)C(=O)N2CCC[C@H]2C(=O)N[C@@H](CNC[C@H](O)[C@@H](O)[C@H](O[C@@H]2O[C@H](CO)[C@H](O)[C@H](O)[C@H]2O)[C@H](O)CO)C(=O)N[C@@H](CC(C)C)C(=O)N2C[C@H](O)C[C@H]2C(=O)N[C@@H](Cc2c[nH]c3ccccc23)C(=O)N[C@@H](CCN)C(=O)N[C@@H](Cc2cn(CC(=O)O)c3ccccc23)C(=O)N1C [Example 2013] ({CH2CO}-Y[NMeA]NP[X27]L[Hyp]W[Dab][Trp(1-CH2COOH)][NMeNle][NMeNle]LCG-NH2; thioether N-14)

IC50: 1.8 nM
SMILES: CCCC[C@H]1C(=O)N(C)[C@@H](CCCC)C(=O)N[C@@H](CC(C)C)C(=O)N[C@H](C(=O)NCC(N)=O)CSCC(=O)N[C@@H](Cc2ccc(O)cc2)C(=O)N(C)[C@@H](C)C(=O)N[C@@H](CC(N)=O)C(=O)N2CCC[C@H]2C(=O)N[C@@H](CNC[C@H](O)[C@@H](O)[C@H](O)[C@H](O)CO)C(=O)N[C@@H](CC(C)C)C(=O)N2C[C@H](O)C[C@H]2C(=O)N[C@@H](Cc2c[nH]c3ccccc23)C(=O)N[C@@H](CCN)C(=O)N[C@@H](Cc2cn(CC(=O)O)c3ccccc23)C(=O)N1C [Example 2015] ({CH2CO}-Y[NMeA]NP[X58]L[Hyp]W[Dab][Trp(1-CH2COOH)][NMeNle][NMeNle]LCG-NH2; thioether N-14)

IC50: 2 nM
SMILES: CCCC[C@H]1C(=O)N(C)[C@@H](CCCC)C(=O)N[C@@H](CC(C)C)C(=O)N[C@H](C(=O)NCC(N)=O)CSCC(=O)N[C@@H](Cc2ccc(O)cc2)C(=O)N(C)[C@@H](C)C(=O)N[C@@H](CC(N)=O)C(=O)N2CCC[C@H]2C(=O)N[C@@H](CNC[C@@H](O)[C@H](O)[C@@H](O)[C@@H](O)CO)C(=O)N[C@@H](CC(C)C)C(=O)N2C[C@H](O)C[C@H]2C(=O)N[C@@H](Cc2c[nH]c3ccccc23)C(=O)N[C@@H](CCN)C(=O)N[C@@H](Cc2cn(CC(=O)O)c3ccccc23)C(=O)N1C [Example 2016] ({CH2CO}-Y[NMeA]NP[X43]L[Hyp]W[Dab][Trp(1-CH2COOH)][NMeNle][NMeNle]LCG-NH2; thioether N-14)
